Reference: US20210253626A1, “PRODRUGS OF FULVESTRANT” (KASHIV BIOSCIENCES, LLC, priority 2018, published 2021)
In brackets after ≈: the same amount, converted by molar mass. Where a name gives a salt, the structure may show the parent alone. Read-outs that look alike come from different tables or passages of the source.

How the values were obtained:
[1] = 4 h, pH 7.4
Experimental: Solubility Test Procedure I:
(§1) A 50 mmol stock solution for each test compound was prepared using dimethyl sulfoxide. From this stock solution, a working solution of 1 mmol was prepared by diluting with dimethyl sulfoxide. The working solution of 1 mmol was then serially diluted using dimethyl sulfoxide. Then, 5-20 μl of stock solution is added to 1 ml of phosphate buffer solution of pH 7.4. The solution was then stirred for 4 h at 25° C. in order to reach equilibrium. After this incubation period, the solution was filtered using 0.45 micron PVDF injector filters to remove the insoluble fraction of the compound and subsequently filtrate is taken for quantification using UV Detector. The concentration of test sample was calculated using the linearity/calibration curve.

physchem [2] = conditions: 25 °C, pH 7.4, aqueous buffer, kinetic from dmso stock
Experimental: Solubility Test Procedure I:
as §1

[3] = Kinetic solubility (Solubility Test Procedure I); conditions: for Increase in solubility compare to fulvestrant (Fold): kinetic aqueous solubility at pH 7.4; for solubility at 4 h: phosphate buffer, 25 °C, pH 7.4, aqueous buffer, kinetic from dmso stock
Experimental: Solubility Test Procedure I:
as §1

physchem [4] = conditions: thermodynamic from solid
Experimental: Solubility Test Procedure II:
(§2) Stock solutions of the test compounds and fulvestrant were prepared in phosphate buffered saline (PBS) pH 7.4 and sodium acetate buffer pH 4.0, which was incubated for 24 h at room temperature with constant mixing at 100 rpm in the same tube. After incubation, the tubes were centrifuged for 20 min. at 10000 rpm. Later 200 μL of sample was taken and filtered. The filtrate was analysed by HPLC-UV against 0.0012 mg/ml, 0.037 mg/mL, 0.3 mg/ml, 0.1 mg/ml and 1 mg/ml of dimethylsulfoxide (DMSO) stock.
(§3) Solubility (μg/ml)=[Peak area of sample/Peak area of standard]×Concentration of standard % Aqueous solubility: [Test solubility (μg/ml)/incubation concentration (μg/ml)]×100

[5] = Thermodynamic solubility (Solubility Test Procedure II); conditions: for solubility thermodynamic at 24 h: thermodynamic from solid
Experimental: Solubility Test Procedure II:
as §2, §3

[6] = pH 4, aqueous buffer, Thermodynamic solubility (mg/mL) pH 4.0, sodium acetate buffer pH 4.0, 24 h room temperature, test compound concentration 1 mg/mL

SMILES: CN(C)CC(=O)Oc1ccc2c(c1)C[C@@H](CCCCCCCCC[S+]([O-])CCCC(F)(F)C(F)(F)F)[C@@H]1[C@@H]2CC[C@]2(C)[C@@H](O)CC[C@@H]12 (stereo partly drawn) [Example 1, (7R,8R,9S,13S,14S,17S)-17-hydroxy-13-methyl-7-(9-((4,4,5,5,5-pentafluoropentyl)sulfinyl)nonyl)-7,8,9,11,12,13,14,15,16,17-decahydro-6H-cyclopenta[a]phenanthren-3-yl dimethylglycinate]
- Increase in solubility compare to fulvestrant (Fold) [1]: 8 Fold
- solubility at 4 h (physchem [2]): 0.04 µM (≈ 0.0277 µg/mL)

SMILES: C[C@]12CC[C@@H]3c4ccc(OC(=O)CN5CCCCC5)cc4C[C@@H](CCCCCCCCC[S+]([O-])CCCC(F)(F)C(F)(F)F)[C@H]3[C@@H]1CC[C@@H]2O (stereo partly drawn) [Example 3, (7R,8R,9S,13S,14S,17S)-17-hydroxy-13-methyl-7-(9-((4,4,5,5,5-pentafluoropentyl)sulfinyl)nonyl)-7,8,9,11,12,13,14,15,16,17-decahydro-6H-cyclopenta[a]phenanthren-3-yl 2-(piperidin-1-yl)acetate hydrochloride]
- Increase in solubility compare to fulvestrant (Fold) [3]: 669 Fold
- solubility at 4 h [3]: 3.3 µM

SMILES: CN1CCN(C(=O)Oc2ccc3c(c2)C[C@@H](CCCCCCCCC[S+]([O-])CCCC(F)(F)C(F)(F)F)[C@@H]2[C@@H]3CC[C@]3(C)[C@@H](O)CC[C@@H]23)CC1 (stereo partly drawn) [Example 4, (7R,8R,9S,13S,14S,17S)-17-hydroxy-13-methyl-7-(9-((4,4,5,5,5-pentafluoropentyl)sulfinyl)nonyl)-7,8,9,11,12,13,14,15,16,17-decahydro-6H-cyclopenta[a]phenanthren-3-yl 4-methylpiperazine-1-carboxylate]
- solubility thermodynamic at 24 h (physchem [4]; [6]): 790 µg/mL (≈ 1080 µM)
- Increase in solubility compare to fulvestrant (Fold) [3]: 97 Fold
- solubility at 4 h [3]: 0.5 µM (≈ 0.366 µg/mL)

SMILES: C[C@]12CC[C@@H]3c4ccc(OC(=O)CCC(=O)O)cc4C[C@@H](CCCCCCCCC[S+]([O-])CCCC(F)(F)C(F)(F)F)[C@H]3[C@@H]1CC[C@@H]2O (stereo partly drawn) [Example 5, 4-(((7R,8R,9S,13S,14S,17S)-17-hydroxy-13-methyl-7-(9-((4,4,5,5,5-pentafluoropentyl)sulfinyl)nonyl)-7,8,9,11,12,13,14,15,16,17-decahydro-6H-cyclopenta[a]phenanthren-3-yl)oxy)-4-oxobutanoic acid]
- Increase in solubility compare to fulvestrant (Fold) [1]: 295 Fold
- solubility at 4 h (physchem [2]): 1.4 µM (≈ 0.99 µg/mL)

SMILES: C[C@]12CC[C@@H]3c4ccc(OC(=O)c5ccccc5O)cc4C[C@@H](CCCCCCCCC[S+]([O-])CCCC(F)(F)C(F)(F)F)[C@H]3[C@@H]1CC[C@@H]2O (stereo partly drawn) [Example 6, (7R,8R,9S,13S,14S,17S)-17-hydroxy-13-methyl-7-(9-((4,4,5,5,5-pentafluoropentyl)sulfinyl)nonyl)-7,8,9,11,12,13,14,15,16,17-decahydro-6H-cyclopenta[a]phenanthren-3-yl 2-hydroxybenzoate]
- Increase in solubility compare to fulvestrant (Fold) [3]: 562 Fold
- solubility at 4 h [3]: 2.7 µM (≈ 1.96 µg/mL)

SMILES: CCOP(=O)(OCC)Oc1ccc2c(c1)C[C@@H](CCCCCCCCC[S+]([O-])CCCC(F)(F)C(F)(F)F)[C@@H]1[C@@H]2CC[C@]2(C)[C@@H](O)CC[C@@H]12 (stereo partly drawn) [Example 7, diethyl ((7R,8R,9S,13S,14S,17S)-17-hydroxy-13-methyl-7-(9-((4,4,5,5,5-pentafluoropentyl)sulfinyl)nonyl)-7,8,9,11,12,13,14,15,16,17-decahydro-6H-cyclopenta[a]phenanthren-3-yl) phosphate]
- Increase in solubility compare to fulvestrant (Fold) [3]: 35 Fold
- solubility at 4 h [3]: 0.2 µM

SMILES: C[C@]12CC[C@@H]3c4ccc(OC(=O)CN5CCCC5)cc4C[C@@H](CCCCCCCCC[S+]([O-])CCCC(F)(F)C(F)(F)F)[C@H]3[C@@H]1CC[C@@H]2O (stereo partly drawn) [Example 8, (7R,8R,9S,13S,14S,17S)-17-hydroxy-13-methyl-7-(9-((4,4,5,5,5-pentafluoropentyl)sulfinyl)nonyl)-7,8,9,11,12,13,14,15,16,17-decahydro-6H-cyclopenta[a]phenanthren-3-yl 2-(pyrrolidin-1-yl)acetate]
- Increase in solubility compare to fulvestrant (Fold) [1]: 3500 Fold
- solubility at 4 h (physchem [2]): 17.1 µM (≈ 12.3 µg/mL)

SMILES: C[C@]12CC[C@@H]3c4ccc(OC(=O)N5CCC(N6CCCCC6)CC5)cc4C[C@@H](CCCCCCCCC[S+]([O-])CCCC(F)(F)C(F)(F)F)[C@H]3[C@@H]1CC[C@@H]2O (stereo partly drawn) [Example 9, (7R,8R,9S,13S,14S,17S)-17-hydroxy-13-methyl-7-(9-((4,4,5,5,5-pentafluoropentyl)sulfinyl)nonyl)-7,8,9,11,12,13,14,15,16,17-decahydro-6H-cyclopenta[a]phenanthren-3-yl[1,4′-bipiperidine]-1′-carboxylate]
- solubility thermodynamic at 24 h (physchem [4]; [6]): 700 µg/mL (≈ 874 µM)
- Increase in solubility compare to fulvestrant (Fold) [3]: 22 Fold
- solubility at 4 h [3]: 0.1 µM (≈ 0.0801 µg/mL)

SMILES: C[C@]12CC[C@@H]3c4ccc(OC(=O)CN5CCOCC5)cc4C[C@@H](CCCCCCCCC[S+]([O-])CCCC(F)(F)C(F)(F)F)[C@H]3[C@@H]1CC[C@@H]2O (stereo partly drawn) [Example 10, (7R,8R,9S,13S,14S,17S)-17-hydroxy-13-methyl-7-(9-((4,4,5,5,5-pentafluoropentyl)sulfinyl)nonyl)-7,8,9,11,12,13,14,15,16,17-decahydro-6H-cyclopenta[a]phenanthren-3-yl 2-morpholinoacetate]
- Increase in solubility compare to fulvestrant (Fold) [1]: 32 Fold
- solubility at 4 h (physchem [2]): 0.2 µM (≈ 0.147 µg/mL)

SMILES: CN1CCC(CC(=O)Oc2ccc3c(c2)C[C@@H](CCCCCCCCC[S+]([O-])CCCC(F)(F)C(F)(F)F)[C@@H]2[C@@H]3CC[C@]3(C)[C@@H](O)CC[C@@H]23)CC1 (stereo partly drawn) [Example 15, (7R,8R,9S,13S,14S,17S)-17-hydroxy-13-methyl-7-(9-((4,4,5,5,5-pentafluoropentyl)sulfinyl)nonyl)-7,8,9,11,12,13,14,15,16,17-decahydro-6H-cyclopenta[a]phenanthren-3-yl 2-(1-methylpiperidin-4-yl)acetate]
- solubility thermodynamic at 24 h (physchem [4]; pH 4, aqueous buffer): 630 µg/mL (≈ 845 µM)

SMILES: CN1CCCN(C(=O)Oc2ccc3c(c2)C[C@@H](CCCCCCCCC[S+]([O-])CCCC(F)(F)C(F)(F)F)[C@@H]2[C@@H]3CC[C@]3(C)[C@@H](O)CC[C@@H]23)CC1 (stereo partly drawn) [Example 19, (7R,8R,9S,13S,14S,17S)-17-hydroxy-13-methyl-7-(9-((4,4,5,5,5-pentafluoropentyl)sulfinyl)nonyl)-7,8,9,11,12,13,14,15,16,17-decahydro-6H-cyclopenta[a]phenanthren-3-yl 4-methyl-1,4-diazepane-1-carboxylate]
- solubility thermodynamic at 24 h (physchem [4]; pH 4, aqueous buffer, Thermodynamic solubility (mg/mL) pH 4.0, sodium acetate buffer pH 4.0, 24 h room temperature, test compound concentration 2 mg/mL): 1050 µg/mL (≈ 1410 µM)

SMILES: C[C@]12CC[C@@H]3c4ccc(OP(=O)(O)O)cc4C[C@@H](CCCCCCCCC[S+]([O-])CCCC(F)(F)C(F)(F)F)[C@H]3[C@@H]1CC[C@@H]2O (stereo partly drawn) [Example 20, (7R,8R,9S,13S,14S,17S)-17-hydroxy-13-methyl-7-(9-((4,4,5,5,5-pentafluoropentyl)sulfinyl)nonyl)-7,8,9,11,12,13,14,15,16,17-decahydro-6H-cyclopenta[a]phenanthren-3-yl dihydrogen phosphate]
- solubility thermodynamic (physchem [4]; pH 4, aqueous buffer): 740 µg/mL
- solubility thermodynamic (physchem [4]; pH 7.4, aqueous buffer): 1220 µg/mL

SMILES: C[C@]12CC[C@@H]3c4ccc(OP(=O)(O)O)cc4C[C@@H](CCCCCCCCC[S+]([O-])CCCC(F)(F)C(F)(F)F)[C@H]3[C@@H]1CC[C@@H]2O (stereo partly drawn) [Example 21, (7R,8R,9S,13S,14S,17S)-17-hydroxy-13-methyl-7-(9-((4,4,5,5,5-pentafluoropentyl)sulfinyl)nonyl)-7,8,9,11,12,13,14,15,16,17-decahydro-6H-cyclopenta[a]phenanthren-3-yl dihydrogen phosphate disodium]
- solubility thermodynamic at 24 h (physchem [4]; pH 7.4, aqueous buffer, Thermodynamic solubility (mg/mL) pH 7.4, PBS pH 7.4, 24 h room temperature, test compound concentration 5 mg/mL): > 5000 µg/mL

SMILES: C[C@]12CC[C@@H]3c4ccc(OC(=O)N5CCC(N6CCCCC6)CC5)cc4C[C@@H](CCCCCCCCC[S+]([O-])CCCC(F)(F)C(F)(F)F)[C@H]3[C@@H]1CC[C@@H]2O (stereo partly drawn) [Example 29, (7R,8R,9S,13S,14S,17S)-17-hydroxy-13-methyl-7-(9-((4,4,5,5,5-pentafluoropentyl)sulfinyl)nonyl)-7,8,9,11,12,13,14,15,16,17-decahydro-6H-cyclopenta[a]phenanthren-3-yl [1,4′-bipiperidine]-1′-carboxylate hydrochloride]
- Thermodynamic solubility (mg/mL) pH 4.0 ([5]; sodium acetate buffer pH 4.0, 24 h room temperature, test compound concentration 1 mg/mL, hydrochloride): 0.75 mg/mL

SMILES: C[C@]12CCC3c4ccc(OCOP(=O)(O)O)cc4C[C@@H](CCCCCCCCC[S+]([O-])CCCC(F)(F)C(F)(F)F)[C@H]3[C@@H]1CC[C@@H]2O (stereo partly drawn) [Example 44, ((7R,8R,13S,14S,17S)-17-hydroxy-13-methyl-7-(9-(4,4,5,5,5-pentafluoropentylsulfinyl)nonyl)-7,8,9,11,12,13,14,15,16,17-decahydro-6H-cyclopenta[a]phenanthren-3-yloxy)methyl dihydrogen phosphate]
- solubility thermodynamic at 24 h (physchem [4]; pH 4, aqueous buffer): > 1000 µg/mL
- solubility thermodynamic at 24 h (physchem [4]; pH 7.4, aqueous buffer): > 15000 µg/mL

SMILES: CC(C)[C@H](NC(=O)Oc1ccc2c(c1)C[C@@H](CCCCCCCCC[S+]([O-])CCCC(F)(F)C(F)(F)F)[C@@H]1C2CC[C@]2(C)[C@@H](O)CC[C@@H]12)C(=O)O (stereo partly drawn) [Example 45, (2S)-2-(((7R,8R,13S,14S,17S)-17-hydroxy-13-methyl-7-(9-(4,4,5,5,5-pentafluoropentylsulfinyl)nonyl)-7,8,9,11,12,13,14,15,16,17-decahydro-6H-cyclopenta[a]phenanthren-3-yloxy)carbonylamino)-3-methylbutanoic acid]
- solubility thermodynamic (physchem [4]; pH 7.4, aqueous buffer): 1250 µg/mL (≈ 1670 µM)

SMILES: C[C@]12CC[C@@H]3c4ccc(O)cc4C[C@@H](CCCCCCCCC[S+]([O-])CCCC(F)(F)C(F)(F)F)[C@H]3[C@@H]1CC[C@@H]2O (some centres unmarked) [Fulvestrant]
- solubility thermodynamic at 24 h ([5]; phosphate buffered saline (PBS), pH 7.4, aqueous buffer): 1.2 µg/mL (≈ 1.98 µM)
- solubility thermodynamic at 24 h ([5]; sodium acetate buffer, pH 4, aqueous buffer): 2.9 µg/mL (≈ 4.78 µM)
- solubility at 4 h [3]: 0.005 µM (≈ 0.00303 µg/mL)
